From publication PMC5760651, “Peptidomimetic blockade of MYB in acute myeloid leukemia” (Nature Communications, 2018)
Non-standard residues stand in square brackets, D forms with d. Residues, ends and D or L forms follow the SMILES beside them.

What was measured:
[1] = system: MOLM-13 cells; assay: RNA-seq transcriptome profiling; format: cell-based, human; settings: MOLM13 cells, 20 µM, 6 h
Description: Reads were quality and adapter trimmed using “trim_galore” before aligning to human assembly hg19 with STAR v2.5 using the default parameters. Coverage and post-alignment quality were assessed using the Picard tool CollectRNASeqMetrics (http://broadinstitute.github.io/picard/). Read count tables were created using HTSeq v0.6.1. Normalization and expression dynamics were evaluated with DESeq2 using the default parameters.

[2] = system: MV-411 cells; assay: MYB ChIP-seq; format: cell-based, human; settings: 20 µM, 6 h, 3 biological replicates
Description: ChIP was performed as previously described. Briefly, cells were fixed in 1% formalin in phosphate-buffered saline (PBS) for 10 minutes at room temperature. Glycine (125 mM final concentration) and Tris-HCl pH 8 (100 mM final concentration) were added to the cells and cells were washed twice in ice-cold PBS and resuspended in sodium dodecyl sulfate (SDS) lysis buffer (1% SDS, 10 mM EDTA, 50 mM Tris–HCl, pH 8.1). Lysates were sonicated using the Covaris S220 adaptive focused sonicator to obtain 100–500 bp chromatin fragments (Covaris, Woburn, CA). Lysates containing sheared chromatin fragments were resuspended in 0.01% SDS, 1.1% Triton-X100, 1.2 mM EDTA, 16.7 mM Tris–HCl, pH 8.1,167 mM NaCl. Lysates and antibody-coupled beads were incubated over night at 4 °C. […] Libraries were sequenced on the Illumina HiSeq 2500 instruments, with 30 million 2 × 50 bp paired reads.
For ChIP-seq analysis, reads were quality and adapter trimmed using ‘trim_galore’ before aligning to human genome assembly hg19 with bwa mem using the default parameters. Aligned reads with the same start position and orientation were collapsed to a single read before subsequent analysis. Density profiles were created by extending each read to the average library fragment size and then computing density using the BEDTools suite. Enriched regions were discovered using MACS 2.0 and scored against matched input libraries. […]

[3] = system: primary patient-derived MLL-rearranged leukemia cells in NSG mice; assay: Patient-derived MLL-rearranged leukemia xenograft, treatment upon peripheral leukemia; format: in vivo, mouse; settings: vs vehicle
Description: All mouse experiments were carried out in accordance with the Memorial Sloan Kettering Institutional Animal Care and Use Committee. For toxicity studies, female C57BL/6J mice (The Jackson Laboratory, Bar Harbor, Maine, USA) were treated with MYBMIM peptide suspended in PBS and administered daily through intraperitoneal injection at a dose of 25 mg/kg for a total of 7 days. Mice were sacrificed at the end of treatment for hematologic, biochemical and histologic analyses. For pharmacokinetic studies, C57BL/6J mice (The Jackson Laboratory, Bar Harbor, Maine, USA) were treated with a single IP injection of 25 mg/kg BIO-MYBMIM, and blood plasma was collected 30 min, 2 h, 4 h, and 24 h post-injection. Quantification of BIO-MYBMIM was measured using the Quant-Tag Biotin kit (Vector Labs, cat. # BDK-2000) following the manufacturer instructions. For patient-derived xenografts, two hundred thousand primary AML MLL-rearranged leukemia cells were suspended in […] of PBS and transplanted via tail vein injection into 8-week-old sublethally irradiated (200 rad) female NOD.Cg-Prkdc(scid)Il2rg(tm1Wjl)/SzJ mice (The Jackson Laboratory, Bar Harbor, Maine, USA). Recipient mice were maintained on antibiotic supplementation in chow (0.025% trimethoprim, 0.124% sulfamethoxazole, Sulfatrim). Three days after transplant, mice were randomly assigned to experimental treatment groups. […]

[4] = system: AML cells; assay: Flow cytometry of differentiation markers; format: cell-based, human
Description: Cells were resuspended to a concentration of 1 × 10^6 cells were plated in triplicate in a 12-well tissue culture plate. For assessment of annexin V staining, cells were washed with PBS and then resuspended in PBS with Annexin V-APC (BioLegend) and propidium iodide at a dilution of 1:1000. For intracellular detection of cleaved caspase 3, cells were fixed and permeabilized using the BD Cytofix/Cytoperm Fixation/Permeabilization solution according to the manufacturer’s instructions (BD Biosciences). Cells were then stained using the Alexa Fluor 647-conjugated anti-active caspase-3 (BD Biosciences) at a dilution of 1:50. Cells were incubated for 30 minutes room temperature in the dark, washed, and then analyzed using the BD LSRFortessa cell analyzer. For assessment of differentiation, cells were stained using the anti-human CD14 PE at a dilution of 1:20 (Affymetrix eBiosciences) and anti-human CD66b at a dilution of 1:20 (Affymetrix eBiosciences).

Question: What does the source list for `CC[C@@H](C)[C@@H](NC(=O)[C@@H](CCCCN)NC(=O)[C@@H](CCC(=O)O)NC(=O)[C@@H](CC(C)C)NC(=O)[C@@H](CCC(=O)O)NC(=O)[C@@H](CC(C)C)NC(=O)[C@@H](CC(C)C)NC(=O)[C@@H](CC(C)C)NC(=O)[C@@H](CCSC)NC(=O)[C@@H](CO)NC(=O)[C@H](NC(=O)[C@@H](CCC(=O)O)NC(=O)[C@@H](CC(N)=O)NC(=O)[C@@H](CCC(=O)O)NC(=O)[C@@H](CC(C)C)NC(=O)[C@@H](CCCCN)NC(C)=O)[C@H](C)O)C(=O)N[C@H](CCCNC(=N)N)C(=O)N[C@H](CCCCN)C(=O)NCC(=O)NCC(=O)N[C@H](CCCNC(=N)N)C(=O)N[C@H](CCCNC(=N)N)C(=O)N[C@H](CCCNC(=N)N)C(=O)N[C@H](CCC(N)=O)C(=O)N[C@H](CCCNC(=N)N)C(=O)N[C@H](CCCNC(=N)N)C(=O)N[C@H](CCCCN)C(=O)N[C@H](CCCCN)C(=O)N[C@H](CCCNC(=N)N)C(=O)NCC(=O)N[C@H](Cc1ccc(O)cc1)C(N)=O` [MYBMIM] (Ac-[dK][dL][dE][dN][dE][dT][dS][dM][dL][dL][dL][dE][dL][dE][dK][dI][dR][dK]GG[dR][dR][dR][dQ][dR][dR][dK][dK][dR]G[dY]-NH2)?
Answer: BCL2, MYC, GFI1, MTL5, IKZF1 gene expression [1]: significant downregulation; MYB complexes bound to promoters and enhancers eliminated [2]: 2,690; Leukemia burden by bone marrow analysis of human leukemia cells (hCD45) ([3]; NSG mice, 25 mg/kg IP twice daily, 21 days, 6 mice, p = 1.2e-4): significant reduction in leukemia burden; Levels of BCL2 in residual leukemia cells in the bone marrow ([3]; quantitative immunofluorescence, p = 0.3): minimal reduction; CD14, CD66b and CD11b expression [4]: no significant changes
